Consider one compound from patent EP1996603B1, “LIPID A ANTAGONISTS WITH ANTI-SEPTIC SHOCK, ANTI-INFLAMMATORY, ANTI-ISCHEMIA AND ANALGESIC ACTIVITY” (Università Degli Studi Di Milano - Bicocca, priority 2006, dated 2007).

For experiment [1], the system named is ischemia-induced EEG flattening. The experiment is described as follows: Cerebral ischemia by bilateral carotid occlusion, EEG spectral power. The following applies: 10 mg/kg i.p. 30 min before bilateral carotid occlusion; starting from 1 hour after recirculation. The class given is in vivo, Mongolian gerbils (Meriones unguiculatus). The method, then:
After implanting EEG electrodes, the gerbils were divided into different groups on the basis of the assigned treatment. Their electroencephalogram (EEG) was recorded for 1 h a day, for three days, to determine the basal total and relative spectral power. The signals were recorded and processed for fast Fourier transform spectral analysis by means of PC software (PowerLab, AD Instruments, Pty, Ltd, Australia). EEG recordings were also made for seven days after ischemia. After basal EEG recordings, each gerbil was again lightly anaesthetised and 10-min. ischemia was induced by bilateral common carotid arteries occlusion. The ischemia was verified qualitatively on paper by the complete flattening of the EEG. A group of animals (sham-operated) underwent the same surgical procedure except that the carotid arteries were not clamped. Compound Id was i.p. administered to the animals at the dose of 10 mg/kg 30 minutes before ischemia induction.

The target of another experiment is T1, human TLR-4A (Homo sapiens, UniProt O00206+Q9Y6Y9).
T1 construct: host or cells: HEK-293 (HEK-293-hTLR-4A)
T1 sequence (O00206 24-839): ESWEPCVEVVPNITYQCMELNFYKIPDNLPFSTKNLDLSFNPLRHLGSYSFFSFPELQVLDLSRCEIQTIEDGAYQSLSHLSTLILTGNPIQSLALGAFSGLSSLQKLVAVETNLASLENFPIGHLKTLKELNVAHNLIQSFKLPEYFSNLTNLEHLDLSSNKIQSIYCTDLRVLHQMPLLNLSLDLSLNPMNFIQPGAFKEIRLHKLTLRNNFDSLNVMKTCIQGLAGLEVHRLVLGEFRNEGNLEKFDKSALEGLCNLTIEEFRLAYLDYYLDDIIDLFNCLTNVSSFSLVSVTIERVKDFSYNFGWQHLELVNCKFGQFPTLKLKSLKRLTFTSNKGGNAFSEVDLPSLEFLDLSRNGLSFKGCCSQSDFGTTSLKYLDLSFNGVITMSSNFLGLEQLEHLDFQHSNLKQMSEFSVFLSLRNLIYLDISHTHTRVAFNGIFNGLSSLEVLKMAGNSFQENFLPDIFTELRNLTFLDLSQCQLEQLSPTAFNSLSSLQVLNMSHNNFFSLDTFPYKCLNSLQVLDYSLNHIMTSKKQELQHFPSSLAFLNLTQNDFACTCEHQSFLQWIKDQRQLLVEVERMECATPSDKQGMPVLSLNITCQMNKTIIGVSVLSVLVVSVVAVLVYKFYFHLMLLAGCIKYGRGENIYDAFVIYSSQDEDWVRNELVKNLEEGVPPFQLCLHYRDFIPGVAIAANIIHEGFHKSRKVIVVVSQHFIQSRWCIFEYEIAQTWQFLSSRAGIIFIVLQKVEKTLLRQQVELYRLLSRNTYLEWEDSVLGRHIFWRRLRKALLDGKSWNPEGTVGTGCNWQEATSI
T1 sequence (Q9Y6Y9 17-160 limits assumed): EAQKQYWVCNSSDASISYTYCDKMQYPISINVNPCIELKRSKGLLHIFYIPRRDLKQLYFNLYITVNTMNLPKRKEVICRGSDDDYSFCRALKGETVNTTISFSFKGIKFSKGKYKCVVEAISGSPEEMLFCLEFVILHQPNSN
The experiment can be described thus: NF-kB activation in HEK-293 cells transfected with TLR-4, stimulated with lipid A. It counts as cell-based. The conditions noted are these: TLR-4-transfected HEK 293; lipid A (0.5 µM) after pre-exposure to compound; measured 2 h later. The method, then:
• Figure 1. Antagonistic activity of compounds Ia, Ic and Id on lipid A-stimulated cytokine production in BMDC, BMØ and D1 cells. TNFα production was measured in the supernatants 24 h later. From the right: lipid A (0.5µM), cells treated with lipid A alone; DMSO: cells incubated in the presence of complete medium plus DMSO; inhibitor 50 µM, cells treated only with monosaccharides Ia, Ic and Id; other columns, lipid A + compounds […] at increasing doses. The data represent means and standard deviations of triplicate wells. This is a representative of three independent experiments. *, p < 0.05; **, p < 0.01; ***, p< 0.001. • Figure 2. TLR-4 selectivity of monosaccharide Id. […] IL-1β was measured in the supernatants by ELISA. […] Lower panels, TNFα production measured by ELISA 24 h after stimulation with CpG (selective for TLR-9) or PAM3Cys-SK4 (selective for TLR-2) in the presence of compound Id. […] The cells were then analyzed by FACS for the presence of annexin V and propidium iodide (PI) double positive cells. […] NF-kB activation was evaluated in the nuclear extract 2 h later and expressed as optical density (OD) at 450 nm. […] Effect of different doses of compound Id on carrageenan induced edema in mice measured 4h after the exposure and expressed as difference between the paw volume of treated paw versus the contralateral paw. […]

Take `CCCCCCCCCCCCCCO[C@H]1[C@@H](OC)O[C@H](C[N+](C)(C)C2CCCC2)[C@@H](O)[C@@H]1OCCCCCCCCCCCCCC` [Compound Id, methyl 6-deoxy-6-N,N',N"-dimethylcyclopentylammonium-2,3-di-O-tetradecyl-α-D-glucopyranoside]: the “ischemia-induced EEG flattening” value in experiment [1] is reported as “able to significantly antagonize the ischemia-induced EEG flattening”. Further, the NF-kB activation entry at human TLR-4A is reported as “able to significantly counteract the effect of lipid A”.
